Results published in US20230085307A1, “PYRIDAZINONE COMPOUND AND HERBICIDE” (NISSAN CHEMICAL CORPORATION, priority 2019, published 2023).

Legend:
late watergrass = experiment: Test Example 1: herbicidal activity, application before weed generation under submerged conditions (Table 16, symbol A); type: in vivo, late watergrass (Echinochloa oryzicola)
How it was run: (§1)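 Emulsion formulation, water-diluted to set dose, was put onto the flooded surface (4 cm depth, alluvial soil) the same day weeds were sown and 2.5-leaf rice transplanted. After 3 weeks at 25-30 °C under glass, each species was rated 0 (≤5% kill) to 5 (≥90% kill).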

oval-leafed pondweed = experiment: Test Example 1: herbicidal activity, application before weed generation under submerged conditions (Table 16, symbol C); type: in vivo, oval-leafed pondweed (Monochoria vaginalis)
How it was run: as §1

Japanese bulrush = experiment: Test Example 2: herbicidal activity, application during weed generation under submerged conditions (Table 17, symbol B); type: in vivo, Japanese bulrush (Schoenoplectus juncoides); conditions: application during weed generation, submerged conditions
How it was run: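 In this pot test, flooded alluvial soil (water depth 4 cm) holds all three species sown as a mixture. Once seedlings have one to two leaves, the compound's emulsion, thinned with water to the intended dose, is poured on the water; grading follows after three weeks on the earlier criteria.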

barnyard grass [1] = experiment: Test Example 3: herbicidal effect by foliage application, Wagner pot (Table 18, symbol H); type: in vivo, barnyard grass (Echinochloa crus-galli)
How it was run: (§2)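 Plants were sown in alluvial soil held under 0.1–0.5 cm standing water and grown 14 days in a greenhouse at 25–30 °C. An emulsifiable formulation, water-diluted to the set dose, was then sprayed onto the foliage, and effects were scored three weeks later using previously defined criteria.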

rice flat sedge = experiment: Test Example 3: herbicidal effect by foliage application, Wagner pot (Table 18, symbol E); type: in vivo, rice flat sedge (Cyperus iria)
How it was run: as §2

green foxtail = experiment: Test Example 4: herbicidal effect by soil treatment (Table 19, symbol G); type: in vivo, green foxtail (Setaria viridis); conditions: for herbicidal effect rating, G: green foxtail: amount of applied herbicide 320 g/ha
How it was run: (§3)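 Emulsion of test compound, water-diluted to predetermined amount, sprayed on soil after sowing (seed depth ~1.5 cm, sterilized diluvial soil). Greenhouse, 25–30° C. Effect graded at three weeks post-spray.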

barnyard grass [2] = experiment: Test Example 4: herbicidal effect by soil treatment (Table 19, symbol H); type: in vivo, barnyard grass (Echinochloa crus-galli); conditions: for herbicidal effect rating, H: barnyard grass: amount of applied herbicide 320 g/ha
How it was run: as §3

velvetleaf = experiment: Test Example 4: herbicidal effect by soil treatment (Table 19, symbol M); type: in vivo, velvetleaf (Abutilon theophrasti); conditions: for herbicidal effect rating, M: velvetleaf: amount of applied herbicide 320 g/ha
How it was run: as §3

redroot pigweed = experiment: Test Example 4: herbicidal effect by soil treatment (Table 19, symbol N); type: in vivo, redroot pigweed (Amaranthus retroflexus); conditions: for herbicidal effect rating, N: redroot pigweed: amount of applied herbicide 320 g/ha
How it was run: as §3

chickweed = experiment: Test Example 4: herbicidal effect by soil treatment (Table 19, symbol P); type: in vivo, common chickweed (Stellaria media); conditions: for herbicidal effect rating, P: chickweed: amount of applied herbicide 320 g/ha
How it was run: as §3

persian speedwell [3] = experiment: Test Example 4: herbicidal effect by soil treatment (Table 19, symbol R); type: in vivo, Persian speedwell (Veronica persica); conditions: for herbicidal effect rating, R: persian speedwell: amount of applied herbicide 320 g/ha
How it was run: as §3

southern crabgrass = experiment: Test Example 5: herbicidal effect by foliage application, plastic box (Table 20, symbol F); type: in vivo, southern crabgrass (Digitaria ciliaris); conditions: foliage application; for effect on southern crabgrass (F): 3 weeks after application; for herbicidal effect grade, F: southern crabgrass: three weeks after application
How it was run: (§4)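 Post-emergence foliar test in sterilized diluvial soil. Compound applied as water-diluted emulsion at a predetermined rate to 14-day-old plants; evaluation at three weeks.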

barnyard grass [4] = experiment: Test Example 5: herbicidal effect by foliage application, plastic box (Table 20, symbol H); type: in vivo, barnyard grass (Echinochloa crus-galli); conditions: foliage application; for effect on barnyard grass (H): 3 weeks after application; for herbicidal effect grade, H: barnyard grass: three weeks after application
How it was run: as §4

wild oat = experiment: Test Example 5: herbicidal effect by foliage application, plastic box (Table 20, symbol I); type: in vivo, wild oat (Avena fatua); conditions: foliage application; for effect on wild oat (I): 3 weeks after application; for herbicidal effect grade, I: wild oat: three weeks after application
How it was run: as §4

blackgrass = experiment: Test Example 5: herbicidal effect by foliage application, plastic box (Table 20, symbol J); type: in vivo, blackgrass (Alopecurus myosuroides); conditions: foliage application; for effect on blackgrass (J): 3 weeks after application; for herbicidal effect grade, J: blackgrass: three weeks after application
How it was run: as §4

persian speedwell [5] = experiment: Test Example 5: herbicidal effect by foliage application, plastic box (Table 20, symbol R); type: in vivo, Persian speedwell (Veronica persica); conditions: foliage application; for effect on persian speedwell (R): 3 weeks after application; for herbicidal effect grade, R: persian speedwell: three weeks after application
How it was run: as §4

Compound | Herbicidal effect on A: late watergrass (grade 0-5) (late watergrass; 320 g/ha applied herbicide) | Herbicidal effect on C: oval-leafed pondweed (grade 0-5) (oval-leafed pondweed; 320 g/ha applied herbicide) | herbicidal effect rating, B: Japanese bulrush (Japanese bulrush; AAH 320 g/ha) | herbicidal effect on H (barnyard grass), rating 0-5 (barnyard grass [1]; 320 g/ha) | herbicidal effect on E (rice flat sedge), rating 0-5 (rice flat sedge; 320 g/ha) | G: green foxtail, herbicidal effect rating (green foxtail; AAH 320 g/ha) | H: barnyard grass, herbicidal effect rating (barnyard grass [2]; AAH 320 g/ha) | M: velvetleaf, herbicidal effect rating (velvetleaf; AAH 320 g/ha) | N: redroot pigweed, herbicidal effect rating (redroot pigweed; AAH 320 g/ha) | P: chickweed, herbicidal effect rating (chickweed; AAH 320 g/ha) | R: persian speedwell, herbicidal effect rating (persian speedwell [3]; AAH 320 g/ha) | effect on southern crabgrass (F) (southern crabgrass; 320 g/ha) | effect on barnyard grass (H) (barnyard grass [4]; 320 g/ha) | effect on wild oat (I) (wild oat; 320 g/ha) | effect on blackgrass (J) (blackgrass; 320 g/ha) | effect on persian speedwell (R) (persian speedwell [5]; 320 g/ha) | herbicidal effect rating, G: green foxtail (green foxtail) | herbicidal effect rating, H: barnyard grass (barnyard grass [2]) | herbicidal effect rating, M: velvetleaf (velvetleaf) | herbicidal effect rating, N: redroot pigweed (redroot pigweed) | further results
C#CC(C)Oc1ccc(-c2sc3ccccc3c2-c2c(OCOCCOC)c(C)nn(C)c2=O)cc1 (racemic) [1-218] |  |  |  |  |  |  |  |  |  |  |  |  |  |  |  |  |  |  |  |  | Herbicidal effect on A: late watergrass (grade 0-5) (late watergrass; 100 g/ha applied herbicide): 4 (Herbicidal rate of 70% or more and less than 90%); Herbicidal effect on C: oval-leafed pondweed (grade 0-5) (oval-leafed pondweed; 100 g/ha applied herbicide): 0 (Herbicidal rate of 5% or less (almost no effect)); herbicidal effect rating, B: Japanese bulrush (Japanese bulrush; AAH 100 g/ha): 3 (Herbicidal rate of 40% or more and less than 70%); herbicidal effect on H (barnyard grass), rating 0-5 (barnyard grass [1]; 100 g/ha): 4 (Herbicidal rate of 70% or more and less than 90%); herbicidal effect on E (rice flat sedge), rating 0-5 (rice flat sedge; 100 g/ha): 4 (Herbicidal rate of 70% or more and less than 90%); G: green foxtail, herbicidal effect rating (green foxtail; AAH 187 g/ha): 3 (Herbicidal rate of 40% or more and less than 70%); H: barnyard grass, herbicidal effect rating (barnyard grass [2]; AAH 187 g/ha): 2 (Herbicidal rate of 20% or more and less than 40%); M: velvetleaf, herbicidal effect rating (velvetleaf; AAH 187 g/ha): 0 (Herbicidal rate of 5% or less (almost no effect)); N: redroot pigweed, herbicidal effect rating (redroot pigweed; AAH 187 g/ha): 2 (Herbicidal rate of 20% or more and less than 40%); P: chickweed, herbicidal effect rating (chickweed; AAH 187 g/ha): 1 (Herbicidal rate of 5% or more and less than 20%); R: persian speedwell, herbicidal effect rating (persian speedwell [3]; AAH 187 g/ha): 5 (Herbicidal rate of 90% or more (almost completely withered)); effect on southern crabgrass (F) (southern crabgrass; 187 g/ha): 0 (Herbicidal rate of 5% or less (almost no effect)); effect on barnyard grass (H) (barnyard grass [4]; 187 g/ha): 3 (Herbicidal rate of 40% or more and less than 70%); effect on wild oat (I) (wild oat; 187 g/ha): 0 (Herbicidal rate of 5% or less (almost no effect)); effect on blackgrass (J) (blackgrass; 187 g/ha): 4 (Herbicidal rate of 70% or more and less than 90%); effect on persian speedwell (R) (persian speedwell [5]; 187 g/ha): 5 (Herbicidal rate of 90% or more (almost completely withered))
COCC(C)Oc1ccc(-c2sc3ccccc3c2-c2c(O)c(C)nn(C)c2=O)cc1 (racemic) [1-228] | 5 (Herbicidal rate of 90% or more (almost completely withered)) | 4 (Herbicidal rate of 70% or more and less than 90%) | 3 (Herbicidal rate of 40% or more and less than 70%) | 5 (Herbicidal rate of 90% or more (almost completely withered)) | 4 (Herbicidal rate of 70% or more and less than 90%) | 5 (Herbicidal rate of 90% or more (almost completely withered)) | 4 (Herbicidal rate of 70% or more and less than 90%) | 4 (Herbicidal rate of 70% or more and less than 90%) | 5 (Herbicidal rate of 90% or more (almost completely withered)) | 4 (Herbicidal rate of 70% or more and less than 90%) | 5 (Herbicidal rate of 90% or more (almost completely withered)) | 5 (Herbicidal rate of 90% or more (almost completely withered)) | 5 (Herbicidal rate of 90% or more (almost completely withered)) | 0 (Herbicidal rate of 5% or less (almost no effect)) | 5 (Herbicidal rate of 90% or more (almost completely withered)) | 5 (Herbicidal rate of 90% or more (almost completely withered)) |  |  |  |  | 
CCC(COc1ccc(-c2sc3ccccc3c2-c2c(O)c(C)nn(C)c2=O)cc1)OC (racemic) [1-230] | 5 (Herbicidal rate of 90% or more (almost completely withered)) | 4 (Herbicidal rate of 70% or more and less than 90%) | 3 (Herbicidal rate of 40% or more and less than 70%) | 5 (Herbicidal rate of 90% or more (almost completely withered)) | 3 (Herbicidal rate of 40% or more and less than 70%) | 4 (Herbicidal rate of 70% or more and less than 90%) | 3 (Herbicidal rate of 40% or more and less than 70%) | 4 (Herbicidal rate of 70% or more and less than 90%) | 5 (Herbicidal rate of 90% or more (almost completely withered)) | 2 (Herbicidal rate of 20% or more and less than 40%) | 5 (Herbicidal rate of 90% or more (almost completely withered)) | 5 (Herbicidal rate of 90% or more (almost completely withered)) | 5 (Herbicidal rate of 90% or more (almost completely withered)) | 4 (Herbicidal rate of 70% or more and less than 90%) | 5 (Herbicidal rate of 90% or more (almost completely withered)) | 5 (Herbicidal rate of 90% or more (almost completely withered)) |  |  |  |  | 
CCCC(=O)Oc1c(C)nn(C)c(=O)c1-c1c(-c2ccc(OCC)cc2)sc2ccccc12 [1-014] | 5 (Herbicidal rate of 90% or more (almost completely withered)) | 5 (Herbicidal rate of 90% or more (almost completely withered)) | 3 (Herbicidal rate of 40% or more and less than 70%) | 4 (Herbicidal rate of 70% or more and less than 90%) | 5 (Herbicidal rate of 90% or more (almost completely withered)) |  |  |  |  |  |  |  |  |  |  |  | 1 (Herbicidal rate of 5% or more and less than 20%) | 2 (Herbicidal rate of 20% or more and less than 40%) | 0 (Herbicidal rate of 5% or less (almost no effect)) | 0 (Herbicidal rate of 5% or less (almost no effect)) | herbicidal effect rating, P: chickweed (chickweed): 4 (Herbicidal rate of 70% or more and less than 90%); herbicidal effect rating, R: persian speedwell (persian speedwell [3]): 5 (Herbicidal rate of 90% or more (almost completely withered)); herbicidal effect grade, F: southern crabgrass (southern crabgrass; 320 g/ha): 0 (Herbicidal rate of 5% or less (almost no effect)); herbicidal effect grade, H: barnyard grass (barnyard grass [4]; 320 g/ha): 4 (Herbicidal rate of 70% or more and less than 90%); herbicidal effect grade, I: wild oat (wild oat; 320 g/ha): 1 (Herbicidal rate of 5% or more and less than 20%); herbicidal effect grade, J: blackgrass (blackgrass; 320 g/ha): 0 (Herbicidal rate of 5% or less (almost no effect)); herbicidal effect grade, R: persian speedwell (persian speedwell [5]; 320 g/ha): 5 (Herbicidal rate of 90% or more (almost completely withered))
CCCOc1ccccc1-c1sc2ccccc2c1-c1c(O)c(C)nn(C)c1=O [1-015] | 3 (Herbicidal rate of 40% or more and less than 70%) | 3 (Herbicidal rate of 40% or more and less than 70%) | 1 (Herbicidal rate of 5% or more and less than 20%) | 5 (Herbicidal rate of 90% or more (almost completely withered)) | 5 (Herbicidal rate of 90% or more (almost completely withered)) |  |  |  |  |  |  |  |  |  |  |  | 4 (Herbicidal rate of 70% or more and less than 90%) | 4 (Herbicidal rate of 70% or more and less than 90%) | 0 (Herbicidal rate of 5% or less (almost no effect)) | 0 (Herbicidal rate of 5% or less (almost no effect)) | herbicidal effect rating, P: chickweed (chickweed): 3 (Herbicidal rate of 40% or more and less than 70%); herbicidal effect rating, R: persian speedwell (persian speedwell [3]): 4 (Herbicidal rate of 70% or more and less than 90%); herbicidal effect grade, F: southern crabgrass (southern crabgrass; 320 g/ha): 3 (Herbicidal rate of 40% or more and less than 70%); herbicidal effect grade, H: barnyard grass (barnyard grass [4]; 320 g/ha): 3 (Herbicidal rate of 40% or more and less than 70%); herbicidal effect grade, I: wild oat (wild oat; 320 g/ha): 3 (Herbicidal rate of 40% or more and less than 70%); herbicidal effect grade, J: blackgrass (blackgrass; 320 g/ha): 5 (Herbicidal rate of 90% or more (almost completely withered)); herbicidal effect grade, R: persian speedwell (persian speedwell [5]; 320 g/ha): 5 (Herbicidal rate of 90% or more (almost completely withered))
